The values that follow come from US10251876B2, “Method for treating tumour, pharmaceutical composition and medicinal kit” (CHIA TAI TIANQING PHARMACEUTICAL GROUP CO., LTD., priority 2014, dated 2019).

Each structure is given as a SMILES string. Counter-ions that a name gives are not always drawn. Like-named read-outs stand apart in the source and are kept apart here.

In general, AUC(0-inf) refers to total exposure, with the tail of the curve extrapolated. Lower therefore signals less exposure. As usually defined, the AUC(0-t) is exposure summed from dosing to a finite time, without extrapolation to infinity. A higher AUC(0-t) goes with more exposure. One may read the Cmax as the maximum level reached in the sampled fluid or tissue. For orientation: MRT means a mean duration of stay, worked out from the concentration-time curve. In general, Tmax refers to the time at which the peak concentration occurs.

Data set [1] has as its system malignant tumor patients. The experiment in a line: Preliminary and overall therapeutic effect in malignant tumor patients. Particulars: continuous administration for two weeks and rest for one week. The format is in vivo, human. The procedure: The malignant tumor patients those were diagnosed definitely and had failed standard treatment or lacking standard treatment were recruited for phase I study of tolerance and preliminary therapeutic effect. The tolerance was observed when patients were administered 5 mg or 10 mg of the capsules of dihydrochloride of Compound I once daily respectively for at least 2 cycles continuously, wherein each cycle was 28 days.
After the adjustment of the dosage regimen, the malignant tumor patients those were diagnosed definitely and had failed standard treatment or lacking standard treatment were recruited, continuous administrating for 2 weeks and resting for 1 week were applied, i.e., 3 weeks (21 days) was a treatment cycle, and the observation of tolerance was continuously performed and maintained at least 2 cycles (42 days), and the observation of therapeutic effects was performed at the same time.

Data set [2] in a line: Pharmacokinetics of single administration in solid tumour subjects. It is filed as in vivo. The following applies: human, plasma, single oral administration. The procedure:
(§1) All the solid tumour subjects participating in the tolerance research in Example 3 were performed a monitor of plasma concentration to evaluate pharmacokinetic parameters of the capsule of Compound I dihydrochloride. • (1) Pharmacokinetics of Single Administration
After beginning the tests, the qualified subjects took the capsule of Compound I dihydrochloride once and performed pharmacokinetic studies of single administration.

Data set [3] in a line: Pharmacokinetics of continuous administration (2 weeks, rest 1 week) in solid tumour subjects. The format is in vivo. The following applies: human, plasma, oral. Here is the method: as §1
The qualified subjects took the drug once and performed pharmacokinetic monitor of single administration. After subjecting to at least 7 days of a washout period, pharmacokinetic studies of continuous administration were performed. One treating cycle has continuous administration for 2 weeks and rest for 1 week, and continuous monitor were applied for at least 2 cycles. A total of 21 subjects in 3 dose groups (10 mg, 16 mg and 12 mg, respectively) continuously took the capsules of Compound I dihydrochloride, while performing the monitor of plasma concentration.

Take `COc1cc2c(Oc3ccc4[nH]c(C)cc4c3F)ccnc2cc1OCC1(N)CC1` [Compound I dihydrochloride, 1-[[[4-(4-fluoro-2-methyl-1H-indol-5-yl)oxy-6-methoxyquinolin-7-yl]oxy]methyl]cyclopropylamine dihydrochloride]: the “therapeutic effects, overall” value in data set [1] was “various tumours can benefit”.
In the case of `COc1cc2c(Oc3ccc4[nH]c(C)cc4c3F)ccnc2cc1OCC1(N)CC1` [Compound I, 1-[[[4-(4-fluoro-2-methyl-1H-indol-5-yl)oxy-6-methoxyquinolin-7-yl]oxy]methyl]cyclopropylamine], the AUC(0-inf) in data set [2] (10 mg/person, n = 4, mean) was 570 ng·h/mL; in data set [2] (12 mg/person, n = 11, mean), 1160 ng·h/mL; in data set [2] (16 mg/person, n = 4, mean) it was 1720 ng·h/mL. In addition, the AUC(0-t) in data set [2] (10 mg/person, n = 4, mean) worked out at 327 ng·h/mL; in data set [2] (12 mg/person, n = 11, mean), 938 ng·h/mL; in data set [2] (16 mg/person, n = 4, mean) it was 1330 ng·h/mL. Further, the Cmax in data set [2] (10 mg/person, n = 4, mean) was 6.07 ng/mL; in data set [2] (12 mg/person, n = 11, mean) it was 11.3 ng/mL; in data set [2] (16 mg/person, n = 4, mean), 16.1 ng/mL; in data set [3] (10 mg/person, n = 3, average (RSD %)), 64.9 ng/mL; in data set [3] (12 mg/person, n = 15, average (RSD %)), 67 ng/mL; in data set [3] (16 mg/person, n = 3, average (RSD %)) it was 93.1 ng/mL. Also, the mean residence time (MRT) turned out to be 142 h in data set [2] (10 mg/person, n = 4, mean); 162 h in data set [2] (12 mg/person, n = 11, mean); 163 h in data set [2] (16 mg/person, n = 4, mean). Moreover, the time of peak concentration (Tmax) in data set [2] (10 mg/person, n = 4, mean) is 6.75 h; in data set [2] (12 mg/person, n = 11, mean) it was 8.73 h; in data set [2] (16 mg/person, n = 4, mean), 10 h. For the same compound, the half-life in data set [2] (10 mg/person, n = 4, mean, read-out: t1/2 (converted)) is 88.9 h; in data set [2] (12 mg/person, n = 11, mean, read-out: t1/2 (converted)), 92 h; in data set [2] (16 mg/person, n = 4, mean, read-out: t1/2 (converted)), 96.7 h; in data set [2] (read-out: half-life period (t1/2)), 80 to 100 h.
